The source made the active and inactive calls.
Legend:
[1] = target: T1, Fructose-bisphosphate aldolase (Mycobacterium tuberculosis, UniProt P9WQA3); test: Fluorescence-based biochemical high throughput dose response assay for inhibitors of the fructose-bisphosphate aldolase (FBA) of M. tuberculosis.; assay type: functional
T1 sequence (P9WQA3 whole entry): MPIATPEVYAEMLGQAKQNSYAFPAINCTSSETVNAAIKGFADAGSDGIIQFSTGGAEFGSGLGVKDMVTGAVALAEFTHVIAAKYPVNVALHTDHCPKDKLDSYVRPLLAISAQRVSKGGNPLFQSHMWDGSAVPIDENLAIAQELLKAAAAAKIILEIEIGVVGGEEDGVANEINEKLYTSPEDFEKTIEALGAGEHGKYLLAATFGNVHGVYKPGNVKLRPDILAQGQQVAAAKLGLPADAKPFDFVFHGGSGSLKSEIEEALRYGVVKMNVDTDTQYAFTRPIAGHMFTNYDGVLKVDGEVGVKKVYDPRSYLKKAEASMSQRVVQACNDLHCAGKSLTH

[2] = C. albicans growth with fluconazole, confirmation, fluorescence, retest (AID 2467); assay type: functional, cell-based
[3] = target: Albumin (Bos taurus, UniProt P02769); test: Counterscreen for inhibitors of T-cell receptor (TCR)-CD3 interaction: Fluorescence-based biochemical high throughput dose response assay to identify inhibitors of T-cell receptor (TCR)-CD3 interaction using a TAMRA-labeled BSA probe.; assay type: functional
[4] = NIH-3T3 fibroblast cytotoxicity, dose response, cytotoxicity control, cell-based, fluorescence, Alamar Blue, secondary assay (AID 2327); assay type: functional;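 further: NIH-3T3 mouse fibroblasts cultured with fluconazole at 8 µg/mL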
[5] = target: T2, Long-chain-fatty-acid--AMP ligase FadD28 (Mycobacterium tuberculosis, UniProt P9WQ59); test: Fluorescence polarization aasay to screen for inhibitors that compete for the binding of FadD28 to a bisubstrate Measured in Biochemical System Using Plate Reader - 2147-01_Inhibitor_Dose_CherryPick_Activity.; assay type: functional, Mycobacterium tuberculosis H37Rv
T2 sequence (P9WQ59 whole entry): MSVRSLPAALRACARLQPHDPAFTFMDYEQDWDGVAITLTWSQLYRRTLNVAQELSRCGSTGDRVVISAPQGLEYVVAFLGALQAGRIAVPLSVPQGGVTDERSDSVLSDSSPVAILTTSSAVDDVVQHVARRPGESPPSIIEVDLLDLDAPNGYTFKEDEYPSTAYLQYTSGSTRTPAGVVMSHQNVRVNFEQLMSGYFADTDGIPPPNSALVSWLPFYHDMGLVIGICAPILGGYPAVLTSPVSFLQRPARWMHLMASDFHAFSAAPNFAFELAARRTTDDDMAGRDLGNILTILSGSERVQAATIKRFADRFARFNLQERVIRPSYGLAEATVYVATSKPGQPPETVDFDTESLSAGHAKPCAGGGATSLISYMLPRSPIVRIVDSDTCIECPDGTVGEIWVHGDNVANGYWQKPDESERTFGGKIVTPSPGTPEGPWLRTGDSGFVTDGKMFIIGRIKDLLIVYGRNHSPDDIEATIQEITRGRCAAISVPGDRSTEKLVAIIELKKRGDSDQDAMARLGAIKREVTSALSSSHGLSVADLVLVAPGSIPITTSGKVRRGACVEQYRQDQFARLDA

[6] = target: 5-hydroxytryptamine receptor 2A (Mus musculus, UniProt P35363); assay type: functional, cell-based;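 further: CHO-K1 cells with tagged receptor and beta-arrestin; agonist potency measured as compound-induced activation of the receptor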
[7] = target: Mu-type opioid receptor (Homo sapiens, UniProt P35372); assay type: functional, cell-based;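 further: U2OS cells with beta-arrestin recruitment to OPRM1 by beta-gal complementation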
[8] = HeLa cell cytotoxicity, dose response, cytotoxicity control for MgcRacGAP inhibitor project (AID 624300); assay type: functional
[9] = target: T3, SUMO-activating enzyme (Homo sapiens, UniProt Q9UBT2); test: SUMOylation inhibitor hit validation, confirmation, SUMOylation inhibitor project, biochemical, AlphaScreen (AID 2018); assay type: functional
[10] = target: T4, Sentrin-specific protease 8 (Homo sapiens, UniProt Q96LD8); assay type: functional;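 further: luminescence read-out of SENP8 inhibition, dose-response confirmation following an ultra-high-throughput screen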
T4 sequence (Q96LD8 whole entry): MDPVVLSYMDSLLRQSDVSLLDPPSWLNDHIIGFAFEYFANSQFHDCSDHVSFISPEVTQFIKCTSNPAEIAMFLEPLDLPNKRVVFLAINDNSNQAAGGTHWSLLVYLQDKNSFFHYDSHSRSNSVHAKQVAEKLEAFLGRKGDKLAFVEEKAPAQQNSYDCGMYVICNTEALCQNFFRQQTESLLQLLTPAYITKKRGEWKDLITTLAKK

[11] = target: T3, SUMO-activating enzyme; test: inhibitors of in vitro SUMOylation cascade, primary screen, biochemical, HTRF, uHTS (AID 2006); assay type: protein-complex assay
[12] = target: T5, Caspase-3 (Homo sapiens, UniProt P42574); assay type: functional;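 further: Dose-response selectivity test against caspase-3 for candidate inhibitors of sentrin-specific proteases (SENPs)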
T5 sequence (P42574 whole entry): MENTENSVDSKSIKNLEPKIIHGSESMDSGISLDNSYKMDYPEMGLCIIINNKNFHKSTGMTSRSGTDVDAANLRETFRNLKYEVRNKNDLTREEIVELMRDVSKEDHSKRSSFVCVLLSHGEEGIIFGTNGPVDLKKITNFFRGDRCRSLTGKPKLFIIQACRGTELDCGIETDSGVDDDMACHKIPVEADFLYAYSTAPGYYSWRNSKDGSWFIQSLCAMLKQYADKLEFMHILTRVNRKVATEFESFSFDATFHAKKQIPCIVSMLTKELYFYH

[13] = test system: INS1; test: beta cell apoptosis inhibitors, cytokine rescue, dose response, luminescence, retest (AID 449756); assay type: functional, cell-based; details: Rattus norvegicus;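 further: cell death triggered by IL-1 beta plus TNF-alpha plus IFN-gamma mixture; protective hits raise ATP signal compared with cytokine alone wells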
[14] = target: T6, Sentrin-specific protease 6 (Homo sapiens, UniProt Q9GZR1); assay type: functional;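 further: Luminescence-based dose-response confirmatory assay of SENP6 inhibition, following up an ultra-high-throughput screen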
T6 sequence (Q9GZR1 whole entry): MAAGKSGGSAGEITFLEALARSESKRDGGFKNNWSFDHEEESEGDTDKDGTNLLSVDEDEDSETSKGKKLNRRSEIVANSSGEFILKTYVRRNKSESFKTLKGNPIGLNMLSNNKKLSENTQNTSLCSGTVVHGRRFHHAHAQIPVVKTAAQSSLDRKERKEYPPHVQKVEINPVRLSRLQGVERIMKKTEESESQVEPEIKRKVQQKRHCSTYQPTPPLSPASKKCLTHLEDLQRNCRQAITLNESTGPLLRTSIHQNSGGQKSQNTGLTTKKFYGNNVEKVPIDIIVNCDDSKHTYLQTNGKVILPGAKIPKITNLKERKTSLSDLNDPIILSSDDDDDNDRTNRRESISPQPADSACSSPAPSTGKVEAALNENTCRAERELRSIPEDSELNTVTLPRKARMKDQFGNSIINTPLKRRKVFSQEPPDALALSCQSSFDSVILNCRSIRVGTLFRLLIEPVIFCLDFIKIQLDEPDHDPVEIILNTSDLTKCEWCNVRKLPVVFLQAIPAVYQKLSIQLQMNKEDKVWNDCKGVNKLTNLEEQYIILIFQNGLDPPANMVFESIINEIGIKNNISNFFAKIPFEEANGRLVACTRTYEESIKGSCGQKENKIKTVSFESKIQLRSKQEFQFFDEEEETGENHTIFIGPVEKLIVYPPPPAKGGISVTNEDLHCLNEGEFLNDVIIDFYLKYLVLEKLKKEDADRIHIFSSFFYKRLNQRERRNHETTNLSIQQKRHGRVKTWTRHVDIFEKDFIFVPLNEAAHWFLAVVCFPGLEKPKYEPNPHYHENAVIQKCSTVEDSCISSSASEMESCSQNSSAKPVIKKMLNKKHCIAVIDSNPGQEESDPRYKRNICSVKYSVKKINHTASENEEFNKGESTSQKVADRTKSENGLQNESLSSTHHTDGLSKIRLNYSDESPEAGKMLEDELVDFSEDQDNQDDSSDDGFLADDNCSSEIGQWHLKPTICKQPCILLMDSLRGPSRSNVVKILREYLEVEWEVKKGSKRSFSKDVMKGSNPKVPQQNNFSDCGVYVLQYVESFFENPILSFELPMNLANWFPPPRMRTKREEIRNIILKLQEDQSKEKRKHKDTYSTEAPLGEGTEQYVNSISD

[15] = target: T7, Sentrin-specific protease 7 (Homo sapiens, UniProt Q9BQF6); assay type: functional;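 further: Luminescence-based dose-response confirmation of ultra-high-throughput screening hits, measuring inhibition of SENP7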
T7 sequence (Q9BQF6 whole entry): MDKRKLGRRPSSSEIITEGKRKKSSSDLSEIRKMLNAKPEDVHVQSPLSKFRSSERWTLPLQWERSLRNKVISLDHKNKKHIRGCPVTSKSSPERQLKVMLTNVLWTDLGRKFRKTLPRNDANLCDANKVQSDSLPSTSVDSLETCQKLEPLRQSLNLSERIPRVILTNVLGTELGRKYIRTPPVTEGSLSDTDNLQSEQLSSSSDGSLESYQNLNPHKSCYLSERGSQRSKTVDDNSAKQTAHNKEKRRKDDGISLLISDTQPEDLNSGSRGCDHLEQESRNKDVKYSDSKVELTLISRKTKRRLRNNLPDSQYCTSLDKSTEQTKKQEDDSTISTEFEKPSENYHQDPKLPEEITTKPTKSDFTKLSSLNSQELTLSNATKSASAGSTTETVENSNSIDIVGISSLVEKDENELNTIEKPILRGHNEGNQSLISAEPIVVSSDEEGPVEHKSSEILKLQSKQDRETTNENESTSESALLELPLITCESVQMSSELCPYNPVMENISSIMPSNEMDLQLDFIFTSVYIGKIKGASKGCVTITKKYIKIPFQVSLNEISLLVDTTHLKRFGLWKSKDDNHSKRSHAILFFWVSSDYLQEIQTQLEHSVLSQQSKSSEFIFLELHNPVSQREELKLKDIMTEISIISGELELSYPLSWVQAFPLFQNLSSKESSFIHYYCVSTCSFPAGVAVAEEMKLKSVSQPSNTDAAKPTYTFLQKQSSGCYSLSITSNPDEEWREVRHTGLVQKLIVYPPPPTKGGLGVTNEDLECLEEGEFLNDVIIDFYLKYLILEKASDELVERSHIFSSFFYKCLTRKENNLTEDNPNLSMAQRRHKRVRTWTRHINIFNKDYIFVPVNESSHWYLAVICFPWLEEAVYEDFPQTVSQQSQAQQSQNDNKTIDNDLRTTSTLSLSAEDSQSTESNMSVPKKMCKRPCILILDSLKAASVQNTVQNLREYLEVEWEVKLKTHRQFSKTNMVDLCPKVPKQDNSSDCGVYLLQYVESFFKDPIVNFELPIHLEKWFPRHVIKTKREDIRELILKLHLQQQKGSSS

[16] = target: Large T antigen (Simian virus 40, UniProt P03070); assay type: functional, Betapolyomavirus macacae;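 further: Confirmatory-stage PubChem screen for compounds that inhibit SV40 T antigen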
[17] = Luminescence Cell-Based Dose Confirmation HTS to Identify Inhibitors of Platelet Dense Granule Release. [Related pubchem assays: 1663 (Primary HTS), 1678 (Summary of Project)]; assay type: functional
[18] = target: T8, Rac GTPase-activating protein 1 (Homo sapiens, UniProt Q9H0H5); test: MgcRacGAP GTPase-activating activity inhibitors, confirmation, biochemical, ADP Hunter fluorescence, primary and confirmatory (AID 624330); assay type: functional
T8 sequence (Q9H0H5 whole entry): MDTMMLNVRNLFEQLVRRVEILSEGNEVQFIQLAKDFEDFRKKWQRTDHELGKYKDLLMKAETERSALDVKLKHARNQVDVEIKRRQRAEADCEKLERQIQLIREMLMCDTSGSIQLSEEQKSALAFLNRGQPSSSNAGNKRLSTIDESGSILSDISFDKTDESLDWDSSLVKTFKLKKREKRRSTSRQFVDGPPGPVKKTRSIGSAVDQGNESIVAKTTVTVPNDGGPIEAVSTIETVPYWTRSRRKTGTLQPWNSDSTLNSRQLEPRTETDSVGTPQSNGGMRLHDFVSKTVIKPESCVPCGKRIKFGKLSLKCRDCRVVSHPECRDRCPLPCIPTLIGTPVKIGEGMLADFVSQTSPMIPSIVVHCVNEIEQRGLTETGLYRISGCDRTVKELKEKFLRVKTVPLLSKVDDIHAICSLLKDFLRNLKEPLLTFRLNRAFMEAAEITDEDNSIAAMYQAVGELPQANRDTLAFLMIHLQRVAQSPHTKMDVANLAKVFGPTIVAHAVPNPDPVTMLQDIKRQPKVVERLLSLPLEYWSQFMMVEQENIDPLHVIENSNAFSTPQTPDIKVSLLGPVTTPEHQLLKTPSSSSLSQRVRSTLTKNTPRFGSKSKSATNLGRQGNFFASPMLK

[19] = target: Luciferin 4-monooxygenase (Photinus pyralis, UniProt P08659); test: firefly luciferase enzyme inhibitors, dose response, biochemical, luminescence (AID 1891)
[20] = miR-122 activators in hepatoma reporter cells, dose response, cell-based, Huh7 psiCHECK-miR122, Renilla luciferase, cherry-picked (AID 651956); assay type: functional;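 further: huh7 hepatoma cells stably carrying a psiCHECK-2 miR-122 sensor plasmid; renilla luciferase signal reporting endogenous miR-122 activity after 48 h compound exposure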

Mu-type opioid receptor, sequence (P35372 whole entry): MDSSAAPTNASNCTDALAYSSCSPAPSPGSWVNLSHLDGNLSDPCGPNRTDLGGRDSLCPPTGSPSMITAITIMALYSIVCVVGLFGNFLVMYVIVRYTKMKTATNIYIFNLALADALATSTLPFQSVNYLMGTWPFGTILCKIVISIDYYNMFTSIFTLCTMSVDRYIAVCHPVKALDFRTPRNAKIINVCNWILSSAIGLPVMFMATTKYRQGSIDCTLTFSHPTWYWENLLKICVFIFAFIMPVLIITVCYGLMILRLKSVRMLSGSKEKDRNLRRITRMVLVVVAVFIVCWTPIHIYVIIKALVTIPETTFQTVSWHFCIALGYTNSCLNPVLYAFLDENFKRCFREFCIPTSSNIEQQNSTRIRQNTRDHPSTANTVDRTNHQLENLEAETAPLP
5-hydroxytryptamine receptor 2A, sequence (P35363 whole entry): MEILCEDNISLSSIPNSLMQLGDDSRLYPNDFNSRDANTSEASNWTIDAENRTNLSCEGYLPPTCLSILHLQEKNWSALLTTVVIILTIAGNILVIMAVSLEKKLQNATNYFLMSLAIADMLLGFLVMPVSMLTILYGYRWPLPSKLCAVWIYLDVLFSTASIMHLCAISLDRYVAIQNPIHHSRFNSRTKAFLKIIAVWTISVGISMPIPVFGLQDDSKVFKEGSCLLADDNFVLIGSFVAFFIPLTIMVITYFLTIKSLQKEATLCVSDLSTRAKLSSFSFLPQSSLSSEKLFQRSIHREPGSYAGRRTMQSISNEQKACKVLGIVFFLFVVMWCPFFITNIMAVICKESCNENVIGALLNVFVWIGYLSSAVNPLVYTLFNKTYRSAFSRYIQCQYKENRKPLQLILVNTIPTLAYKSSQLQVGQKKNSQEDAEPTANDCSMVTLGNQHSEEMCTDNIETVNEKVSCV
Albumin, sequence (P02769 whole entry): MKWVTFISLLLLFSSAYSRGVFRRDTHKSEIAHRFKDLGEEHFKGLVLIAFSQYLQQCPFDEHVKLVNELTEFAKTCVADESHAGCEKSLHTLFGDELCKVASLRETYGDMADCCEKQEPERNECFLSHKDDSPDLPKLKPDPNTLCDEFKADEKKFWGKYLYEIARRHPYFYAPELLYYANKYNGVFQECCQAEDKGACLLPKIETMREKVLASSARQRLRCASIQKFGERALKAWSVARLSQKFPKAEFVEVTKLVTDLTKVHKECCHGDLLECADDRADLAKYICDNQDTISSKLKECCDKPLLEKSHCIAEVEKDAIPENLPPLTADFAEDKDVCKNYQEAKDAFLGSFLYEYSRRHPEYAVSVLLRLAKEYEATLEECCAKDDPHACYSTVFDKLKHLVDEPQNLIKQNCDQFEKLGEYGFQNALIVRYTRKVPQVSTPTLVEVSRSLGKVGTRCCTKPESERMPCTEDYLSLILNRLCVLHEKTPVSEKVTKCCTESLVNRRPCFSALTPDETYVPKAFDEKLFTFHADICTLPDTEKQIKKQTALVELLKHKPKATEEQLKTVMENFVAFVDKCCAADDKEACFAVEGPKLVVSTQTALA
T3 sequence (Q9UBE0 whole entry): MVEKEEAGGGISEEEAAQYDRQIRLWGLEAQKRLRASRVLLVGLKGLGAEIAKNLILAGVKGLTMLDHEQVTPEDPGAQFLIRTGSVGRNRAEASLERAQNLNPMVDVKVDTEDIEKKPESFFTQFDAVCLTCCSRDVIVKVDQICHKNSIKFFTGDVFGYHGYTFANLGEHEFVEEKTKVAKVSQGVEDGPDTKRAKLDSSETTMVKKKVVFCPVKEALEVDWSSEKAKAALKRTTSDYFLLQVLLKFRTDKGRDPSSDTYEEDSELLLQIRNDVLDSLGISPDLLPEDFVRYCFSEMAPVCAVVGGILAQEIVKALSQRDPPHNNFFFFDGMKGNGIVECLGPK
T3 sequence (Q9UBT2 whole entry): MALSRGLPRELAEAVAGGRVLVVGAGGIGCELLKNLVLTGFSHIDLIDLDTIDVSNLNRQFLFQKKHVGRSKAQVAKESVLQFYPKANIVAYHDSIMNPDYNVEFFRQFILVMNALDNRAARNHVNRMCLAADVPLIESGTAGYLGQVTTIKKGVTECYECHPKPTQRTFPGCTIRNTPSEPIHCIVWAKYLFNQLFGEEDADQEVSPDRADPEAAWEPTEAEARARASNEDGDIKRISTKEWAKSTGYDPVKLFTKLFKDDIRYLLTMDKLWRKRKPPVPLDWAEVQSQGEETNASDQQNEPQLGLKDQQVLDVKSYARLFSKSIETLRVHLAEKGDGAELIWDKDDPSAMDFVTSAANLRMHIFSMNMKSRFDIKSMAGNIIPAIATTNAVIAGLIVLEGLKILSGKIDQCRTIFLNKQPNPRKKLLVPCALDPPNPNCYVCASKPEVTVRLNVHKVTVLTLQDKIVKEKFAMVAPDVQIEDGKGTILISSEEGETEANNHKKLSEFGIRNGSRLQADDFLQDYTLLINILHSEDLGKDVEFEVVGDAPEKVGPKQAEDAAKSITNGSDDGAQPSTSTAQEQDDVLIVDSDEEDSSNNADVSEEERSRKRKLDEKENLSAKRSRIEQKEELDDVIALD
Large T antigen, sequence (P03070 whole entry): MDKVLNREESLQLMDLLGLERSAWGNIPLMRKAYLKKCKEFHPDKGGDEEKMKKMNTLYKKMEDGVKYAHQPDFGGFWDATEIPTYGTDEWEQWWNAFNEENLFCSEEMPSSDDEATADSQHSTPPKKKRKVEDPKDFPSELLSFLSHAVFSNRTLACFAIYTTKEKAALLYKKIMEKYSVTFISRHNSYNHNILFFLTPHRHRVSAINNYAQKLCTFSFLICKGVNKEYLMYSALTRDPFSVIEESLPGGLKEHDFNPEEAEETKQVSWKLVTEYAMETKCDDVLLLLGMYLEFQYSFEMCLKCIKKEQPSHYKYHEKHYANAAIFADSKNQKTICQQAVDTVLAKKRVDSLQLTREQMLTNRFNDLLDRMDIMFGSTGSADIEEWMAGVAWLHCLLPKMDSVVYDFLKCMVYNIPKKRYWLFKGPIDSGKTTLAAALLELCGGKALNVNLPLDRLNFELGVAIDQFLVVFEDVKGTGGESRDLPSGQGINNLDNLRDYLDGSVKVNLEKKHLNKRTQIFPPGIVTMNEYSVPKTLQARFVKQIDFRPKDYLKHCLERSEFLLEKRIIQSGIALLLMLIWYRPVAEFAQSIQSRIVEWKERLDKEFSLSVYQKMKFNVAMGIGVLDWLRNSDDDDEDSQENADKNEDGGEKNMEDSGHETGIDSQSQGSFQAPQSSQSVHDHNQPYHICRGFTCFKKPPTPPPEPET
Luciferin 4-monooxygenase, sequence (P08659 whole entry): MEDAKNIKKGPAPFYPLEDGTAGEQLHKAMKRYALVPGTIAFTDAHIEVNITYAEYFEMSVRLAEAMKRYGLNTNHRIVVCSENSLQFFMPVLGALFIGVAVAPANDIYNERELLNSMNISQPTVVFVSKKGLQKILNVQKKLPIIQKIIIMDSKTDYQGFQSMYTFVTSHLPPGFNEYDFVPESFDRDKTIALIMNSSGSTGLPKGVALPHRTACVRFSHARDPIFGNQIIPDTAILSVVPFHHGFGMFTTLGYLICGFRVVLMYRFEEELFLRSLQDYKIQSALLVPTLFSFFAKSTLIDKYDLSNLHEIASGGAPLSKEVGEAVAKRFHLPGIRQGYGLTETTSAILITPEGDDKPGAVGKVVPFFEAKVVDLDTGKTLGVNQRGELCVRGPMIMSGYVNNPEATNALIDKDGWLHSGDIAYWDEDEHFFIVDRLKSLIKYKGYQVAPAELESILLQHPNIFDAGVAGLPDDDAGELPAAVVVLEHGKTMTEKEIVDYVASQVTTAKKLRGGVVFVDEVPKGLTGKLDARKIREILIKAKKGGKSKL

## CCOc1ccc(NC(=O)NNC(=O)c2ccc3ccccc3c2O)cc1
[1]
  IC50: 3.15 µM (active)
[2]
  EC50: 2.58 µM (active)
[3]
  IC50: > 94.1 µM (inactive)
[4]
  EC50: > 150 µM (inactive)

## CN(C)S(=O)(=O)c1cccc(NC(=O)CCc2c[nH]c3ccccc23)c1
[5]
  AC50: 97.9 µM (active)

## CC(=O)NC(CC(=O)NNC(=O)c1cc2ccccc2cc1O)c1ccccc1 (stereo not drawn)
[2]
  EC50: > 38 µM (not active)
[3]
  IC50: > 94.1 µM (inactive)
[4]
  EC50: > 160 µM (inactive)

## Cc1nc(-c2nc(-c3c(C(=O)NNC(=O)Nc4cccc(Cl)c4)noc3C)cs2)cs1
[6]
  EC50: 6.23 µM (active)
[7]
  EC50: 92.5 µM (inactive)

## CNC(=O)Oc1ccc(-c2cn3cc(C)ccc3n2)cc1
[8]
  CC50: 100 µM (active)

## O=[N+]([O-])c1ccc(O)c(/C=N/NC(=S)Nc2ccc(Cl)cc2Cl)c1
[9]
  IC50: 1.41 µM (active)
[10]
  IC50: 7.38 µM (active)
[2]
  EC50: 3.32 µM (active)
[3]
  IC50: > 94.1 µM (inactive)
[11]
  IC50: 23.1 µM (active)
[12]
  IC50: 28.3 µM (active)
[13]
  AC50: 1.72 µM (active)
[4]
  EC50: > 160 µM (inactive)
[5]
  AC50: > 100 µM (inactive)
[14]
  IC50: 3.15 µM (active)
[15]
  IC50: 3.08 µM (active)

## Cc1cccc(N2CCN(CC(O)COc3ccc4ccccc4c3)CC2)c1 (stereo not drawn)
[6]
  EC50: 76 µM (inactive)
[7]
  EC50: 92.4 µM (inactive)

## COc1cc(/C=N/Nc2nncn2/N=C/c2ccc(O)c(OC)c2)ccc1O
[16]
  IC50: 12.9 µM (active)
[17]
  EC50: 2.63 µM (active)
[18]
  IC50: 43.6 µM (active)
[19]
  EC50: 0.658 µM (active)
[8]
  CC50: 10.7 µM (active)

## CN(C)C(=O)c1ccc(-c2ccc([C@H]3[C@@H](CO)N4CCCCN(C(=O)C5CCCC5)C[C@@H]34)cc2)cc1
[20]
  AC50: 49 µM (active)

## CC(C)CC#Cc1ccc2c(c1)O[C@H](CN(C)C(=O)c1cnccn1)[C@H](C)CN([C@@H](C)CO)S2(=O)=O
[20]
  AC50: 10.5 µM (active)

## COc1cccc(OC)c1OCCN1CCN(C(=O)c2ccco2)CC1
[6]
  EC50: 3.12 µM (active)
[7]
  EC50: 92.4 µM (inactive)
